# Legend:
# Assay type in all cases: cell-based
# [1] = tested on: HS578T, BT549 and MDA-MB-231 cells; experiment: Apoptosis by Annexin V staining, single agent; conditions: 500 nM, 24 and 48 hours
# Protocol: (§1) Cell cycle analyses and evaluation of apoptosis were performed by flow cytometry using propidium iodide and Annexin V, respectively.
# For apoptosis analyses, HS578T, BT549 and MDA-MB-231 cell monolayers were incubated in trypsin-EDTA, washed twice with cold PBS, and then resuspended in binding buffer (10 mM HEPES free acid [pH 7.4], 140 mM NaCl, 2.5 mM CaCl2) at a concentration of 1×10^6 cells per mL. A total of 1×10^5 cells were incubated for 15 minutes in the dark with Annexin V-APC (BD Biosciences) and propidium iodide (PI) staining solution (5 μL Annexin V-[…], 10 μL of PI [[…] final concentration], 400 μL binding buffer).
# [2] = tested on: HS578T, BT549, MDA-MB-231 and HCC3153 cells; experiment: MTT metabolization in a panel of TNBC cell lines
# Protocol: Hs578T, BT549 and MDA-MB-231 were grown in DMEM and HCC3153 in RPMI; both mediums were purchased from Sigma Aldrich, supplemented with 10% FBS, 100 mU/mL penicillin, 100 μg/mL streptomycin and 2 mM L-glutamine, in a 5% CO2 atmosphere at 37° C. These triple negative breast cancer cell lines were obtained from the American Type Culture Collection Cell Biology Collection (ATCC) (Manassas, Va.). The medium was changed every 2 days.
# Cell proliferation and growth experiments were carried out using 3-(4,5-dimethylthiazol-2-yl)-2,5-diphenyltetrazolium bromide (MTT) uptake assays, where MTT is reduced to purple formazan by the mitochondria of living cells. Increase in cell number is detected by augmented MTT metabolization, and decrease in cell number is reflected by a decrease. HS578T, BT549, MDA-MB-231 and HCC3153 cells were plated at a density of 1×10^4 cells per well in 24-well plates and cultured overnight in DMEM supplemented with 10% FBS. The cells were treated with the drug at different concentrations to plot the dose-response curves in all cancer cell lines using in the study. […] After treatment, each well was replaced with 250 μL of fresh medium containing MTT ([…]) and incubated for 1 hour. The medium was then removed and 500 μL of dimethyl sulfoxide was added to each well. The plate was agitated in the dark for 5 minutes to dissolve the MTT-formazan crystals. The absorbance of the samples was recorded at 562 nm in a multi-well plate reader (BMG labtech). Results were plotted as the mean values of quadruplicates from a representative experiment that was repeated at least two independent times.
# MDA-MB-231 cells [3] = experiment: Microarray analysis of mRNA and RT-PCR of DNA repair genes; conditions: 500 nM, 24 h; confirmed by RT-PCR
# Protocol: MDA-MB-231 cells were grown in DMEM with 10% of FBS, and when 70% confluent, cells were treated with 500 nM Formula (III) for 24 h. Total RNA was extracted and purified using the RNeasy Mini Kit (Qiagen). Double-stranded cDNA and biotinylated cRNA were synthesized using a T7-polyT primer and the BioArray RNA labeling kit (Enzo Life Sciences, Farmingdale, N.Y.), respectively. The labeled RNA was fragmented and hybridized to human oligonucleotide arrays (Human Gene ST Arrays) (Affymetrix, Santa Clara, Calif.) according to manufacturers instructions. For the microarray data analysis, Affymetrix CEL files from each of the two microarray hybridization experiments for the two conditions [untreated control and treated with 500 nM Formula (III)] were imported into the dChip software (Dana Farber Cancer Institute, Boston, Mass.). […] The list of genes was analyzed using functional annotation bioinformatics microarray analysis (DAVID), and gene set enrichment analyses (GSEA). […]
# Total RNA was extracted from cells with Rneasy Mini Kit (QIAGEN) as recommended by the supplier. cDNAs were synthesized from […] of total RNA by using RevertAid H Minus First Strand cDNA synthesis Kit (Fermentas) in a total volume of […]. […] Samples were analyzed in triplicate and mRNA expression was normalized to GADPH […] and quantified by the comparative cycle threshold (Ct) method. […]
# MDA-MB-231 cells [4] = experiment: Cell cycle analysis by flow cytometry (propidium iodide); conditions: 500 nM, 24 h
# Protocol: as §1
# (§2) For cell cycle analyses, HS578T, BT549 and MDA-MB-231 cells were cultured in 100-mm culture dishes, grown to 70% confluence, and treated with 500 nM Formula (III) for 24 h. Cell monolayers were then incubated in trypsin-EDTA and resuspended in 1 mL of PBS. After three washes with PBS, the cell pellets were resuspended in ice cold 70% ethanol for 2 min and centrifuged 5 min at 1800 rpm. The cell pellets were treated with 1 mL of propidium iodide (PI) staining solution (PBS containing 50 μg/mL of PI, 0.5% Tween 20, 0.1 μg/mL RNase A) (BD Biosciences) and incubated in the dark for 1 h. DNA content and cell cycle analyses were performed by using a FACS canto II flow cytometer and the CellQuest software (BD Biosciences).
# HS578T cells = experiment: as above; conditions: 500 nM, 24 h
# Protocol: as §1, §2
# BT549 cells = experiment: as above; conditions: 500 nM, 24 h
# Protocol: as §1, §2
structure (smiles),measurement,setting,value
C[C@]12O[C@H](C[C@@H](O)[C@H]1O)n1c3ccccc3c3c4c(c5c6ccccc6n2c5c31)C(=O)NC4=O [Formula (III)],apoptosis (Annexin V staining),[1],"an increase at 48 hours, more evident in HS578T"
same,MTT metabolization,"[2]; 0 to 2 μM after 72 h, 500 nM over 6 days",inhibited the MTT metabolization in a dose and time dependent manner
same,growth inhibition,"[2]; doses in the submicromolar (nanomolar) range, all cell lines studied",more than 80%
same,IC50,[2]; read-out: IC50 dose (MTT metabolization),500 nM
same,expression of genes involved in DNA repair,MDA-MB-231 cells [3],increased expression of genes involved in DNA repair
same,increase of cells in G2/M phase,MDA-MB-231 cells [4],18%
same,increase of cells in G2/M phase,HS578T cells,15%
same,increase of cells in G2/M phase,BT549 cells,22%

# Source: US9808469B2, “Antitumor activity of multi-kinase inhibitors in triple negative breast cancer” (ENTRECHEM, S.L, priority 2014, dated 2017)
